Assay results: patent publication US20140038884A1, “ANTIVIRAL PEPTIDES” (priority 2011, published 2014)
Read-outs that look alike come from different tables or passages of the source. Ends that are not written are not given here.

Tests used:
HIV-1 = settings: for influence on the expression level of Ag p24: subfragments containing the GGNK sequence
[1] = Isoelectric point (Ip) of the peptides; type: physicochemical
PE/CA PJ15 cells [2] = assay: Cytotoxicity test, Neutral Red Uptake (NRU) method; type: cell-based; settings: 50 microM, +24 and +48 hours from administration
Protocol: FIG. 3 (a, b, c). Cytotoxicity tests according to Neutral Red Uptake (NRU) method, performed on the three peptides: 1932 (SEQ ID NO 1), 2733 (SEQ ID NO 2) and 1413 (SEQ ID NO 3), at the two concentrations of 5 and 50 microM at +24 and +48 hours from administration. Therefore, concentrations near (5 microM) to or markedly higher (50 microM) than those employed for carrying out the ex-vivo and in vitro tests were used. Cells used are a tumour cell line denominated PE/CA PJ15. Positive control (denoted in the legends by ctrl+), used at a sublethal concentration of 10 microM, is a commercial proapoptotic peptide, Catalog #62206 (Anaspec-USA).
Treated cells were subjected to MTT assay at +24 and +48 hours from peptide inoculation. […] After a 3-hour incubation at 38° C., formazan crystals were solubilized with HCl solution in isopropanol (0.04 N, 200 μl) and the stained solution was measured by a microplate reader (Packard Spectracount™, Packard BioScience Company, Meriden U.S.A.) with a 570 nm filter. […] In the MTT citotoxicity test at +24 and +48 hours, averages of the values obtained by photometer reading of the data related to tested peptides were compared. […] From a determination of the amount of Neutral Red retained in the cells exposed thereto (in comparison with the control) the relative toxicity of the chemical substances at issue can be assessed. […]

PE/CA PJ15 cells [3] = assay: Cytotoxicity test, MTT method; type: cell-based; settings: 15 microM, +48 hours from administration
Protocol: FIG. 4 (a, b, c). Cytotoxicity tests according to the MTT method (see protocols) performed on the three peptides: 1932 (SEQ ID NO 1); 2733 (SEQ ID NO 2) and 1413 (SEQ ID NO 3), and at three concentrations of […] at +24 and +48 hours from administration. There were used concentrations near (5 microM) to, or greater (15, 50 microM) than those used in the ex-vivo and in vitro tests, where average concentration of the three peptides is of about 3.65 microM. Cells used are a tumour cell line denominated PE/CA PJ15. Positive control (denoted in the legends by ctrl+), used at a sublethal concentration of 10 microM, is a commercial proapoptotic peptide, Catalog #62206 (Anaspec-USA).
Treated cells were subjected to MTT assay at +24 and +48 hours from peptide inoculation. […] After a 3-hour incubation at 38° C., formazan crystals were solubilized with HCl solution in isopropanol (0.04 N, 200 μl) and the stained solution was measured by a microplate reader (Packard Spectracount™, Packard BioScience Company, Meriden U.S.A.) with a 570 nm filter. […] In the MTT citotoxicity test at +24 and +48 hours, averages of the values obtained by photometer reading of the data related to tested peptides were compared. […]

HIV strain IIIB = assay: In vitro exogenous infection of healthy-donor PBMCs with HIV strain IIIB, p24 ELISA
HIV = assay: Peptide stability, duration of effect on HIV replication in in vitro assays; type: cell-based
Protocol: Current drugs in use for the therapy against HIV infections and AIDS, like e.g. the HAART mixture, are administered in daily doses, whereas the action of the peptides of SEQ ID NO 1, 2, and 3 in in vitro assays highlights a duration of the effect on HIV replication of at least four days.
The effect was verified in two in vitro experimental protocols envisaging: • a treatment of the cells with the virus (adsorption phase), washing, inoculation of the peptide in culture and analysis of viral replication over time; • exposure of the cells to the peptide, adsorption of the cells to the virus, washing, and analysis of viral replication over time.

HIV strain BaL = assay: In vitro exogenous infection of healthy-donor PBMCs with HIV strain BaL, p24 ELISA; settings: at 12 days, 10 microg/ml, regardless of protocol, FIG. 2
HIV-1 R5 = settings: ex vivo

| Substance | activities A) HIV-1 activation ex vivo, B) inhibitory activity, C) (HIV-1) | Ip (isoelectric point) [1] | also measured |
| --- | --- | --- | --- |
| APPGARPLPGPPPPGPPPPGP (listed as Sus sp.) [Peptide 7, Peptide of porcine origin] | do not exhibit any of the activities listed at A), B) and C) | 9.79 | – |
| APPGARPPPGPPPPGPPPPGP (listed as Sus sp.) [Peptide 4, Peptide of porcine origin] | do not exhibit any of the activities listed at A), B) and C) | 9.79 | – |
| APPGARPPPPPPPPADQPQQGP (Sus sp) [Peptide 6, Peptide of porcine origin] | do not exhibit any of the activities listed at A), B) and C) | 5.88 | – |
| DKPKKKPPPPAGPPPPPPPPPGPPPPGP [peptide 2733] | – | – | toxicity with respect to the control (NRU) (PE/CA PJ15 cells [2]): slightly more toxic with respect to the control |
| GPPPPGKPQ (listed as Homo sapiens) [Peptide 1e] | do not exhibit any of the activities listed at A), B) and C) | 8.75 | – |
| GPPPQGGN (listed as Homo sapiens) [Peptide 1d] | do not exhibit any of the activities listed at A), B) and C) | 5.52 | – |
| GPPPQGGNKPQ (listed as Homo sapiens) [Peptide 1b] | exhibit none of the activities listed in points A), B) and C) | 8.75 | influence on the expression level of Ag p24 (HIV-1): in no way influences the expression level of Ag p24 |
| GPPPQGGNKPQGPPPG (listed as Homo sapiens) [Peptide 1c] | exhibit none of the activities listed in points A), B) and C) | 8.75 | influence on the expression level of Ag p24 (HIV-1): in no way influences the expression level of Ag p24 |
| GPPPQGGNKPQGPPPPG (listed as Homo sapiens) [Peptide 1a] | exhibit none of the activities listed in points A), B) and C) | 8.75 | influence on the expression level of Ag p24 (HIV-1): in no way influences the expression level of Ag p24 |
| GPPPQGGNKPQGPPPPGKPQ [peptide 1932] | – | – | toxicity with respect to the control (NRU) (PE/CA PJ15 cells [2]): slightly more toxic with respect to the control; toxicity with respect to the control (MTT) (PE/CA PJ15 cells [3]): slightly toxic with respect to the control |
| RPPPGPPPPGPPPGP-OH [peptide 1413, RPPPGPPPPGPPPGP] | – | 9.75 | inhibitory activity relative to Con1 (HIV-1; versus Con1 of U.S. Pat. No. 5,981,720, no direct comparison): 130 times; inhibition of viral replication (HIV strain IIIB; +8 days of culture, 10 μg/ml): relevant effect of inhibition of viral replication; virus replication over the time considered (p24 antigen) (HIV strain IIIB; peptide 10 microg/ml, FIG. 1): almost equal to zero; persistence of inhibitory effect (HIV strain IIIB; until day 12, FIG. 1): remained unaltered until day 12; duration of the effect on HIV replication (HIV): at least four; inhibition of viral replication (HIV strain BaL): effective in inhibiting viral replication; p24 values (HIV-1 R5; after 5 days of culture, control cells 76 picograms/ml): 191 picograms/ml; p24 values (HIV-1 R5; day 10, control cells 79 picograms/ml): 67 pg/mL |
| RSPFFDL (listed as Sus sp.) [Peptide 5, Peptide of porcine origin] | do not exhibit any of the activities listed at A), B) and C) | 5.84 | – |
